28 molecules from patent publication US10981917B2, “Heterocyclic compound, its preparation method, and pharmaceutical composition comprising the same” (Daewoong Pharmaceutical Co., Ltd., priority 2017, dated 2021) can be followed below.

Structures are written as SMILES. A value given as a limit tells only on which side of the number the result lay.

PRS (prolyl-tRNA synthetase) protein, PRS portion of EPRS, sequence (P07814 1007-1512): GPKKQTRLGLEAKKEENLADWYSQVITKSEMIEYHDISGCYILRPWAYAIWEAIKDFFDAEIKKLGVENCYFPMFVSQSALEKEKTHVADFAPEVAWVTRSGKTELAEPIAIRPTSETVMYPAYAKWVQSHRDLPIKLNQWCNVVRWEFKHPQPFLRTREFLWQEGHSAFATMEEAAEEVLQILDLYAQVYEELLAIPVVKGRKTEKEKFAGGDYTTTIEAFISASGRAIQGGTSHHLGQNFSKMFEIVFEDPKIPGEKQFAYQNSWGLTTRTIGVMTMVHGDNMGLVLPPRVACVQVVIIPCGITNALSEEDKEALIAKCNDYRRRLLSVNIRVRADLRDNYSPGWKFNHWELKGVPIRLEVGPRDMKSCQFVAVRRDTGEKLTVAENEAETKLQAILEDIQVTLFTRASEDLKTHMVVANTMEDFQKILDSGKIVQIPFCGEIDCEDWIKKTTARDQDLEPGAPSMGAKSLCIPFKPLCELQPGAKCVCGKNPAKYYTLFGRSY

For the assay, the target named is PRS (prolyl-tRNA synthetase) protein, PRS portion of EPRS (Homo sapiens (Human), UniProt P07814). In words: PRS enzyme activity inhibition experiment ([3H]proline, liquid scintillation). It counts as biochemical. As to conditions: purified PRS protein, 37° C. for 5 to 10 minutes. The gist of the method:
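Values are % inhibition or IC50 ranges (A ≤100 nM, B 100–500 nM, C ≥500 nM) from [3H]proline incorporation measured by liquid scintillation. PRS portion of human EPRS, reacted 5–10 min at 37 °C in pH 7.4 phosphate buffer containing 5 mM ATP and tRNA, compound at 1 μM.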
The molecule `O[C@H]1CCCN[C@@H]1/C=C/Cn1ccc2cccnc21` [Example 196, (2R,3S)-2-((E)-3-(1H-pyrrolo[2,3-b]pyridin-1-yl)prop-1-en-1-yl)piperidin-3-ol] showed an IC50 of at least 500 nM.

Take `O[C@H]1CCCN[C@@H]1/C=C/Cn1ccc2ccc(Cl)cc21` [Example 197, (2R,3S)-2-((E)-3-(6-chloro-1H-indol-1-yl)prop-1-en-1-yl)piperidin-3-ol]: the IC50 is at least 500 nM.

As to `O[C@H]1CCCN[C@@H]1/C=C/Cn1ncc2ccc(Cl)cc21` [Example 198, (2R,3S)-2-((E)-3-(6-chloro-1H-indazol-1-yl)prop-1-en-1-yl)piperidin-3-ol], the IC50 was at least 500 nM.

For `O[C@H]1CCCN[C@@H]1/C=C/Cn1ccc2c(Cl)ncnc21` [Example 199, (2R,3S)-2-((E)-3-(4-chloro-7H-pyrrolo[2,3-d]pyrimidin-7-yl)prop-1-en-1-yl)piperidin-3-ol], the IC50 is at least 500 nM.

`O[C@H]1CCCN[C@@H]1/C=C/Cn1ncc2cc(Cl)cnc21` [Example 200, (2R,3S)-2-((E)-3-(5-chloro-1H-pyrazolo[3,4-b]pyridin-1-yl)prop-1-en-1-yl)piperidin-3-ol] yielded an IC50 of at least 500 nM.

In the case of `Cc1ccc2c(c1)c(C)nn2C/C=C/[C@H]1NCCC[C@@H]1O` [Example 201, (2R,3S)-2-((E)-3-(3,5-dimethyl-1H-indazol-1-yl)prop-1-en-1-yl)piperidin-3-ol], the concentration for half-maximal inhibition (IC50) was at least 500 nM.

Turning to `COC(=O)c1cn(C/C=C/[C@H]2NCCC[C@@H]2O)c2c(Br)cccc12` [Example 202, methyl 7-bromo-1-((E)-3-((2R,3S)-3-hydroxypiperidin-2-yl)allyl)-1H-indole-3-carboxylate], the IC50 is 100 to 500 nM.

`O=C(O)c1cn(C/C=C/[C@H]2NCCC[C@@H]2O)c2c(Br)cccc12` [Example 203, 7-bromo-1-((E)-3-((2R,3S)-3-hydroxypiperidin-2-yl)allyl)-1H-indole-3-carboxylic acid] showed a 50% inhibitory concentration (IC50) of at least 500 nM.

As for `O=C(O)c1cn(C/C=C/[C@H]2NCCC[C@@H]2O)c2ccc(Br)cc12` [Example 204, 5-bromo-1-((E)-3-((2R,3S)-3-hydroxypiperidin-2-yl)allyl)-1H-indole-3-carboxylic acid], the IC50 was at least 500 nM.

The molecule `O=C(O)c1cn(C/C=C/[C@H]2NCCC[C@@H]2O)c2cccc(Cl)c12` [Example 205, 4-chloro-1-((E)-3-((2R,3S)-3-hydroxypiperidin-2-yl)allyl)-1H-indole-3-carboxylic acid] returned an IC50 of at least 500 nM.

Take `O=C(O)c1cn(C/C=C/[C@H]2NCCC[C@@H]2O)c2cc(Cl)ccc12` [Example 206, 6-chloro-1-((E)-3-((2R,3S)-3-hydroxypiperidin-2-yl)allyl)-1H-indole-3-carboxylic acid]: the IC50 is at least 500 nM.

In turn, `O=C(O)c1cn(C/C=C/[C@H]2NCCC[C@@H]2O)c2c(Cl)cccc12` [Example 207, 7-chloro-1-((E)-3-((2R,3S)-3-hydroxypiperidin-2-yl)allyl)-1H-indole-3-carboxylic acid] registered a 50% inhibitory concentration (IC50) of at least 500 nM.

The molecule `O=C(O)c1cn(C/C=C/[C@H]2NCCC[C@@H]2O)c2cc(F)ccc12` [Example 208, 6-fluoro-1-((E)-3-((2R,3S)-3-hydroxypiperidin-2-yl)allyl)-1H-indole-3-carboxylic acid] showed an IC50 of at least 500 nM.

Turning to `O=C(O)c1cn(C/C=C/[C@H]2NCCC[C@@H]2O)c2ccccc12` [Example 209, 1-((E)-3-((2R,3S)-3-hydroxypiperidin-2-yl)allyl)-1H-indole-3-carboxylic acid], the IC50 was at least 500 nM.

`COC(=O)c1cn(C/C=C/[C@H]2NCCC[C@@H]2O)c2cccc(Cl)c12` [Example 210, methyl 4-chloro-1-((E)-3-((2R,3S)-3-hydroxypiperidin-2-yl)allyl)-1H-indole-3-carboxylate] gave an IC50 of at least 500 nM.

Molecule `COC(=O)c1cn(C/C=C/[C@H]2NCCC[C@@H]2O)c2cc(Cl)ccc12` [Example 211, methyl 6-chloro-1-((E)-3-((2R,3S)-3-hydroxypiperidin-2-yl)allyl)-1H-indole-3-carboxylate] gave an IC50 of at least 500 nM.

`COC(=O)c1cn(C/C=C/[C@H]2NCCC[C@@H]2O)c2c(Cl)cccc12` [Example 212, methyl 7-chloro-1-((E)-3-((2R,3S)-3-hydroxypiperidin-2-yl)allyl)-1H-indole-3-carboxylate] showed an IC50 of at least 500 nM.

On to `COC(=O)c1cn(C/C=C/[C@H]2NCCC[C@@H]2O)c2ccc(Br)cc12` [Example 213, methyl 5-bromo-1-((E)-3-((2R,3S)-3-hydroxypiperidin-2-yl)allyl)-1H-indole-3-carboxylate], for which the IC50 was at least 500 nM.

As for `COC(=O)c1cn(C/C=C/[C@H]2NCCC[C@@H]2O)c2cc(Br)ccc12` [Example 214, methyl 6-bromo-1-((E)-3-((2R,3S)-3-hydroxypiperidin-2-yl)allyl)-1H-indole-3-carboxylate], the IC50 was 100 to 500 nM.

As for `CNC(=O)c1cn(C/C=C/[C@H]2NCCC[C@@H]2O)c2ccc(Br)cc12` [Example 215, 5-bromo-1-((E)-3-((2R,3S)-3-hydroxypiperidin-2-yl)allyl)-N-methyl-1H-indole-3-carboxamide], the IC50 is at least 500 nM.

The molecule `CN(C)C(=O)c1cn(C/C=C/[C@H]2NCCC[C@@H]2O)c2ccc(Br)cc12` [Example 216, 5-bromo-1-((E)-3-((2R,3S)-3-hydroxypiperidin-2-yl)allyl)-N,N-dimethyl-1H-indole-3-carboxamide] registered an IC50 of at least 500 nM.

In the case of `Cc1c(Cl)ccc2c1ncn2C/C(F)=C/[C@H]1NCCC[C@@H]1O` [Example 217, (2R,3S)-2-((Z)-3-(5-chloro-4-methyl-1H-benzo[d]imidazol-1-yl)-2-fluoroprop-1-enyl)piperidin-3-ol], the IC50 was at least 500 nM.

The molecule `Cc1c(Br)ccc2c1ncn2C/C(F)=C/[C@H]1NCCC[C@@H]1O` [Example 218, (2R,3S)-2-((Z)-3-(5-bromo-4-methyl-1H-benzo[d]imidazol-1-yl)-2-fluoroprop-1-en-1-yl)piperidin-3-ol] displayed an IC50 of at least 500 nM.

In the case of `O[C@H]1CCCN[C@@H]1/C=C(\F)Cn1cnc2cc(Cl)c(Cl)cc21` [Example 219, (2R,3S)-2-((Z)-3-(5,6-dichloro-1H-benzo[d]imidazol-1-yl)-2-fluoroprop-1-en-1-yl)piperidin-3-ol], the IC50 was at least 500 nM.

Regarding `OCc1nc2cc(Cl)c(Cl)cc2n1C/C(F)=C/[C@H]1NCCC[C@@H]1O` [Example 220, (2R,3S)-2-((Z)-3-(5,6-dichloro-2-(hydroxymethyl)-1H-benzo[d]imidazol-1-yl)-2-fluoroprop-1-en-1-yl)piperidin-3-ol], the IC50 was at least 500 nM.

`C/C(=C\[C@H]1NCCC[C@@H]1O)Cn1cnc2c(C)c(Cl)ccc21` [Example 221, (2R,3S)-2-((E)-3-(5-chloro-4-methyl-1H-benzo[d]imidazol-1-yl)-2-methylprop-1-en-1-yl)piperidin-3-ol] displayed an IC50 of at least 500 nM.

`C/C(=C\[C@H]1NCCC[C@@H]1O)Cn1cnc2c(C)c(Br)ccc21` [Example 222, (2R,3S)-2-((E)-3-(5-bromo-4-methyl-1H-benzo[d]imidazol-1-yl)-2-methylprop-1-en-1-yl)piperidin-3-ol] yielded an IC50 of at least 500 nM.

For the molecule `C/C(=C\[C@H]1NCCC[C@@H]1O)Cn1cnc2cc(Cl)c(Cl)cc21` [Example 223, (2R,3S)-2-((E)-3-(5,6-dichloro-1H-benzo[d]imidazol-1-yl)-2-methylprop-1-en-1-yl)piperidin-3-ol], the IC50 is at least 500 nM.

Broadly, the IC50 is the concentration needed to halve the response being measured.
